Where two headings read alike, the source gives them in different places. Marks after values point to notes of the source that are not given here.
Experiments:
[1] = test system: IL-1β; assay: Inflammatory factor experiment B: IL-1β in knee synovial tissue (ELISA); assay type: in vivo, SD rats; conditions: Rattus norvegicus, po, read-out: IL-1β percentage decrease %
[2] = test system: TNF-α; assay: Inflammatory factor experiment B: TNF-α in knee synovial tissue (ELISA); assay type: in vivo, SD rats; conditions: Rattus norvegicus, po, read-out: TNF-α percentage decrease %
[3] = Acute toxicity test in mice by single administration; assay type: in vivo, ICR mice; conditions: both sexes, ICR, mouse, in vivo, po; acute toxicity, mice, single gavage; read-out: Maximum tolerated dose (MTD)
Procedure: (§1) Compounds 34, 48, 55 and 58 were ground with 0.5% CMC-Na before administration, and prepared into a suspension of the corresponding concentration for gavage, with an administration volume of 0.1 mL/10 g.
(§2) ICR mice, SPF grade, weighing 18-20 g, 6-8 weeks old, were provided by Nantong University. The Laboratory Animal Production License was SCXK (Su) 2016-0010 and Laboratory Animal Use License was SYXK (Su) 2017-0035.
(§3) After overnight fasting, the drug was administered once by gavage in a volume of 0.1 mL/10 g. The normal group was given the corresponding volume of 0.5% CMC-Na solution according to body weight. The state of the animal was observed after administration, the animals were weighed daily and the number of deaths was recorded for 14 consecutive days.

[4] = test system: ICR mice; assay: as above; assay type: in vivo; conditions: 14 days, deaths/animals
Procedure: as §1, §2, §3

[5] = test system: gouty arthritis rats (sodium urate, right ankle and knee joint cavities); assay: Pharmacodynamics experiment B on gouty arthritis rats: gait score; assay type: in vivo, SD rats; conditions: for Gait Score: dose 0.6 mg/kg gavage, mean; for Gait versus model group, in words: compounds 0.6 mg/kg, colchicine 0.6 and 1.2 mg/kg
Procedure: (§4) Compounds 12, 16, 19, 30, 34, 36, 38, 40, 44, 48, 49, 52, 58, 69, 83, 98, 102, 119, 121, and 122 were prepared by grinding with 0.5% CMC-Na prior to administration and formulated into suspensions of appropriate concentration (0.12 mg/mL) for gavage, with an administered dose of 0.5 mL/100 g.
(§5) 240 SD rats, males, were acclimatized for one week and weighed 180-220 g. […] The dose of each compound group was 0.6 mg/kg. The compounds in each group were prepared into the corresponding concentration suspension, and the volume of administration was 10 mL/kg.
(§6) 250 mg of sodium urate were added to 9 mL of saline, and 1 mL of Tween-80 solution was added, the resulting mixture was heated and stirred to formulate 10 mL of sodium urate solution. The rats were grasped and fixed, and 0.2 mL of sodium urate solution was injected into the right ankle and knee joint cavities respectively to establish gouty arthritis rat model.
(§7) Before modeling, positive drug and tested compounds were pre-administered for 7 days, once a day, and modeling was performed on day 8, and drug administration by gavage continued for 3 days after modeling.
Gait was scored according to the modified gait grading criteria introduced by Coderre et al. The gait of each rat was observed before and 2 h, 4 h, 8 h, 10 h, 24 h and 48 h after modeling and graded scoring was performed. The gait grading criteria were as follows: 0 point, normal walking; 1 point, slight lameness, the lower limbs were slightly bent; 2 points: moderate lameness, the lower limbs just touched the ground; 3 points, severe lameness, the lower limbs left the ground, and walked on three feet. The mean score of each group was calculated and compared with that of the model group.
(§8) Each experimental data was expressed as the mean, and intergroup comparisons were examined for significance using the ANOVA-Dunnett T-test, with P<0.05 as the significance indicator.

[6] = test system: gouty arthritis rats (sodium urate, right ankle and knee joint cavities); assay: Pharmacodynamics experiment B on gouty arthritis rats: ankle swelling rate; assay type: in vivo, SD rats; conditions: Rattus norvegicus, po, read-out: Swelling rate (ankle)
Procedure: as §4, §5, §6, §7
Before modeling and 2 h, 4 h, 8 h, 10 h, 24 h and 48 h after modeling, the circumference of the right ankle joint was measured using a soft ruler or the volume change at the ankle was measured (volumetric method), and the swelling degree and swelling rate of ankle joint were calculated:
Swelling degree (mm)=measured circumference (mm)−baseline circumference (mm)
Swelling rate (%)=swelling degree (mm)/baseline circumference (mm)×100%
as §8

[7] = test system: IL-6; assay: Inflammatory factor experiment B: IL-6 in knee synovial tissue (ELISA); assay type: in vivo, SD rats; conditions: Rattus norvegicus, po, read-out: IL-6 percentage decrease %
[8] = synovial tissue of knee joints, 48 h after modeling, dose 0.6 mg/kg

SMILES | Gait Score ([5]; 2 h) | Gait Score ([5]; 4 h) | Gait Score ([5]; 8 h) | Gait Score ([5]; 10 h) | Gait Score ([5]; 24 h) | Gait Score ([5]; 48 h) | Gait versus model group, in words [5] | inhibition in vivo at 0.6 mg/kg ([1]; 48 h) [%] | inhibition in vivo at 0.6 mg/kg ([2]; 48 h) [%] | change in vivo at 0.6 mg/kg ([6]; 2 h) [%] | change in vivo at 0.6 mg/kg ([6]; 4 h) [%] | change in vivo at 0.6 mg/kg ([6]; 8 h) [%] | change in vivo at 0.6 mg/kg ([6]; 10 h) [%] | change in vivo at 0.6 mg/kg ([6]; 24 h) [%] | change in vivo at 0.6 mg/kg ([6]; 48 h) [%] | inhibition in vivo at 0.6 mg/kg ([7]; 48 h) [%] | other results
COC(=O)c1ccc2c(cc1=O)[C@@H](NC(C)=O)CCc1cc(OC)c(OC)c(OC)c1-2 [Compound 34, methyl (S)-7-acetamido-1,2,3-trimethoxy-9-oxo-5,6,7,9-tetrahydrobenzo[a]heptalen-10-carboxylate] | 0 | 0 | 0** | 0.1** | 0 | 0 | significant improvement in gait occurred at different time points | – | – | – | – | – | – | – | – | – | inhibition in vivo at 0.6 mg/kg [1, 8]: 93.1%; inhibition in vivo at 0.6 mg/kg [2, 8]: 82.9%; MTD at 14 days [3]: > 600 mg/kg; Mortality rate ([4]; single gavage dose 50 mg/kg): 0/6; Mortality rate ([4]; single gavage dose 100 mg/kg): 0/6; Mortality rate ([4]; single gavage dose 400 mg/kg): 0/6; Mortality rate ([4]; single gavage dose 600 mg/kg): 0/6; change in vivo at 0.6 mg/kg ([6]; 2 h, dose 0.6 mg/kg gavage): 3.98%; change in vivo at 0.6 mg/kg ([6]; 4 h, dose 0.6 mg/kg gavage): 8.32%; change in vivo at 0.6 mg/kg ([6]; 8 h, dose 0.6 mg/kg gavage): 16.2%; change in vivo at 0.6 mg/kg ([6]; 10 h, dose 0.6 mg/kg gavage): 17.3%; change in vivo at 0.6 mg/kg ([6]; 24 h, dose 0.6 mg/kg gavage): 21.1%; change in vivo at 0.6 mg/kg ([6]; 48 h, dose 0.6 mg/kg gavage): 9.96%; inhibition in vivo at 0.6 mg/kg [7, 8]: 115%
CNC(=O)N[C@H]1CCc2cc(OC)c(OC)c(OC)c2-c2cc(C)c(OC)c(=O)cc21 [Compound 44, (S)-1-methyl-(1,2,3,10-tetramethoxy-11-methyl-9-oxo-5,6,7,9-tetrahydrobenzo[a]heptalen-7-yl)urea] | 0 | 0 | 0* | 0* | 0 | 0 | – | 104 | 72.6 | -9.72 | -8.92 | -6.13 | -1.47 | 3.17 | -6.2 | 19.7 | –
CNC(=O)c1cc2c(ccc1=O)-c1c(cc(OC)c(OC)c1OC)CC[C@@H]2NC(C)=O [Compound 49, (S)-7-acetamido-1,2,3-trimethoxy-N-methyl-10-oxo-5,6,7,10-tetrahydrobenzo[a]heptalen-9-carboxamide] | 0 | 0 | 0* | 0* | 0.2 | 0 | significant improvement in gait occurred at different time points | 69.1 | 79.2 | -1.02 | 7.38 | 8.12 | 16.5 | 12.9 | 1.43 | 78.6 | –
COc1cc2c(c(OC)c1OC)-c1ccc(S(N)(=O)=O)c(=O)cc1[C@@H](NC(C)=O)CC2 [Compound 69, (S)—N-[1,2,3-trimethoxy-9-oxo-10-aminosulfonyl-5,6,7,9-tetrahydrobenzo[a]heptalen-7-yl]acetamide] | 0 | 0 | 0* | 0* | 0 | 0 | significant improvement in gait occurred at different time points | 110 | 76.1 | 5.65 | 7.01 | 14.7 | 26.8 | 19 | 5.21 | 83 | –
COc1cc2c(c(OC)c1OC)-c1ccc(-n3ccc(C)n3)c(=O)cc1[C@@H](NC(C)=O)CC2 [Compound 98, (S)—N-{1,2,3-trimethoxy-10-(3-methyl-1H-pyrazol-1-yl)-9-oxo-5,6,7,9-tetrahydrobenzo[a]heptalen-7-yl}acetamide] | 0 | 0 | 0* | 0* | 0.1 | 0 | significant improvement in gait occurred at different time points | 65 | 98.9 | 7.9 | 13.4 | 16.4 | 17.7 | 19.7 | 8.9 | 167 | –
COc1cc2c(c(OC)c1OC)-c1ccc(-c3cnn(C)c3)c(=O)cc1[C@@H](NC(C)=O)CC2 [Compound 119, (S)—N-{1,2,3-trimethoxy-10-(1-methyl-1H-pyrazol-4-yl)-9-oxo-5,6,7,9-tetrahydrobenzo[a]heptalen-7-yl}acetamide] | 0 | 0 | 0.1* | 0.4 | 0. | 0 | – | 85.5 | 105 | 10.4 | 14.1 | 19.4 | 22.2 | 15.8 | 5.3 | 169 | –
CNC(=O)c1ccc2c(cc1=O)[C@@H](NC(C)=O)CCc1cc(OC)c(O)c(OC)c1-2 [Compound 121, (S)-7-acetamido-2-hydroxy-1,3-dimethoxy-N-methyl-9-oxo-5,6,7,9-tetrahydrobenzo[a]heptalen-10-carboxamide] | 0 | 0 | 0.2 | 0.2 | 0 | 0 | – | 67.7 | 119 | 11.8 | 15.6 | 20.9 | 22.5 | 16.3 | 9.4 | 231 | –
